Our source for the solubility values is patent US20230226064A1, “ORAL LIQUID FORMULATIONS OF RUXOLITINIB” (Novartis AG, priority 2020, published 2023).

This data set can be described thus: Solubility profile of ruxolitinib phosphate in buffer solutions at 37° C. It counts as physicochemical. The text has this:
Development of stable and palatable oral solution formulation for ruxolitinib is challenging due to pH dependent solubility (see Table 2) of the drug substance with mainly oxidation degradation products at higher temperatures/moisture content and/or in presence of oxygen.

As a reminder, the solubility is how much of the substance goes into solution per volume. Low values mean little dissolved substance, high ones much dissolved substance.

With `N#CC[C@H](C1CCCC1)n1cc(-c2ncnc3[nH]ccc23)cn1` [ruxolitinib phosphate], the solubility runs as follows: (aqueous buffer, Buffer solution pH 3.3) not below 520 µg/mL; (aqueous buffer, Buffer solution pH 4.3) 350 µg/mL; (aqueous buffer, Buffer solution pH 5.3) 290 µg/mL; (aqueous buffer, Buffer solution pH 7.5) 150 µg/mL; (aqueous buffer, Buffer solution pH 8.0) 170 µg/mL; (simulated gastric fluid, Buffer solution pH 1.0) not below 540 µg/mL.
